# Non-standard residues stand in square brackets, D forms with d. Residues, ends and D or L forms follow the SMILES beside them. ξ: configuration not given here. *: point of attachment. ξF = NC(Cc1ccccc1)C(=O)O; Boc = CC(C)(C)OC(=O)*
row,Compound,melting point [°C]
1,NS(=O)(=O)c1ccc(NC(=O)CCl)c(F)c1,185 to 187
2,CN1CCN(Cc2ccc(Cl)cc2Cl)C(C2(C)NCCN2)C1 (centres undefined),61 to 63
3,COc1cc(OC)c(C(=O)CCCCN2CCC3(CC2)NC(=O)NC3=O)cc1NS(=O)(=O)c1ccc(C(F)(F)F)cc1,226
4,NS(=O)(=O)C(F)(F)C(F)(F)C(F)(F)C(F)(F)C(F)(F)C(F)(F)F,165 to 168
5,COc1ccc2c(c1)C(=O)c1ccc(C(=O)O)cc1CC2,201 to 203
6,COC(=O)c1cccc(NC(=S)Nc2cc(C(=O)Nc3ccccc3)ccc2OC)c1,178 to 180
7,CCOc1ccc(C=CC(C)=O)cc1OC,95 to 97
8,Nc1cccc2c1CN(c1nc3c(cc1F)c(=O)c(C(=O)O)cn3C1CC1)C2,> 300
9,C[C@]12CC[C@H](O)CC1=CCC1C2CC[C@@]2(C)C1CC[C@H]2n1cc(-c2ccccc2)nn1 (some centres undefined),234 to 236
10,CC1Cc2cc(NC(=O)OCc3ccccc3)ccc2N1C(=O)OCc1ccccc1 (centres undefined),107 to 111
11,Cn1c(=O)cnn(-c2cc(O)c(Cl)cc2Cl)c1=O,199 to 201
12,CN(NC=C1CSc2ccc(Cl)cc2C1=O)C(=O)OC(C)(C)C,121 to 124
13,CON=C(Cn1ncc(-c2ccc(S(C)(=O)=O)cc2)c(-c2ccc(F)cc2)c1=O)c1ccccc1,95 to 99
14,CCCn1nc(C2CC2)c(C(N)=O)c1Cc1ccc(-c2ccccc2S(=O)(=O)NC(=O)c2ccccc2)cc1,187 to 191
15,COc1ccnc(CCc2nc3cc(-c4ccc(S(=O)(=O)N5CCC(C)CC5)cc4)cnc3[nH]2)c1,186 to 188
16,COc1ccc(-n2nc(C)cc2NC2=NCCN2C(C)=O)cc1,129 to 131
17,COC(=O)c1ccc(-c2nc(-c3c(F)c(F)c(F)c(F)c3F)cs2)cc1,141 to 142
18,Brc1ccc(SCCOCCSc2ccc(Br)cc2)cc1,53
19,O=CNc1ccc(C2=NNC(=O)C3CC23)cc1 (centres undefined),239 to 240
20,CC(Oc1cc(O)ccc1[N+](=O)[O-])C(=O)O (centres undefined),190 to 195
21,Cn1ccnc1Sc1ccc([N+](=O)[O-])cc1,120 to 121
22,CC(=O)NCc1ccc(CC(=NNc2ccc(Br)cn2)c2ccccc2)o1,176
23,"CCCCCCOC(C)c1ccc(-c2ccc(OCc3ccccc3)cc2)cc1 (single isomer, unassigned; (+))",61 to 63

row,Compound,melting point [°C]
1,CCCCn1c(=O)c2[nH]c(/C=C/c3cc(OC)c(OC)c(OC)c3)nc2n(CCCC)c1=O,206 to 207
2,N#CCC(O)(c1ccc(Cl)cc1)c1ccc(-c2ccc(Cl)cc2)cc1 (centres undefined),123
3,COc1cc([N+](=O)[O-])c2nc(C(F)(F)F)cc(O)c2c1,138 to 140
4,CC(=O)c1ccc(CCOc2ccc(CC3SC(=O)NC3=O)cc2)nc1 (centres undefined),114 to 115
5,NCc1ccc(C(=O)NC2CCN(C3CCCCC3)C2)cc1 (centres undefined),125 to 129
6,NS(=O)(=O)c1ccc(NC(=O)Nc2cccc([N+](=O)[O-])c2)cc1,246 to 248
7,CCn1nc(-c2ccccc2)c(C(C)=O)c(Nc2ccc([N+](=O)[O-])cn2)c1=O,200 to 201
8,Cc1cc(C)c(S(=O)(=O)NCCS)c(C)c1,73
9,C[C@@H]1CN(Cc2ccc(COc3cccc4c3CN(C3CCC(=O)NC3=O)C4=O)cc2)C[C@H](C)O1 (some centres undefined),164 to 166
10,O=C(C=c1sc2n(c1=O)Cc1ccccc1N=2)NCc1ccccc1,258 to 259
11,Cc1ccc2c(N3CCN(C)C3=O)ccnc2c1NC(=O)c1c(Cl)cccc1Cl,> 250
12,CCCCCCCc1ccc(C2CC(CCCCCC)C(=O)O2)cc1 (centres undefined),45.9 to 48
13,N#Cc1cc(N)n(-c2c(Cl)cc(-c3ccc(C(F)(F)F)cc3)cc2Cl)n1,195 to 199
14,Cc1cc(-c2cc3cc(OCCNC[C@H](O)COc4ccccc4)ccc3o2)no1,144 to 146
15,Cc1ccccc1C(CCC(=O)O)Oc1cc(OCc2ccsc2)ccc1C(=O)NC(Cc1ccccc1)C(=O)O (centres undefined),178 to 180
16,CCCCCNc1nc(N(C)Cc2ccccc2)c2ncn(CC(=O)O)c2n1,134 to 142
17,Brc1ccc(C2=CCCC2)cc1,94 to 95
18,NCC1COc2ccc3[nH]c(=O)oc3c2O1 (centres undefined),> 250
19,COc1ccc2nc(-c3nc(N)nc(N)n3)sc2c1,> 250
20,Cc1ccc(-c2nc3c(o2)C(=O)c2ccccc2C3=O)cc1,> 260
21,N#CCCNC(=O)c1cccc(-c2cccc3sc(Cc4cccc(C(F)(F)F)c4)cc23)c1,137 to 138
22,CC(Oc1cccc(Cl)c1)c1nnc(N)s1 (centres undefined),136 to 138
23,CCOCc1nc2c(N)nc3cc(OCc4ccc(OC)cc4)ccc3c2n1CC(C)C,181 to 182

row,Compound,melting point [°C]
1,Nc1ccc(C#CCCN2CCC(O)(c3ccc(Cl)cc3)CC2)cc1,134 to 136
2,CC(=O)ON1C(C)(C)CC(OC(=O)c2ccccc2C(=O)OC2CC(C)(C)N(OC(C)=O)C(C)(C)C2)CC1(C)C,172 to 175
3,Cc1ccc(C(O)c2cc3ccncc3[nH]2)cc1 (centres undefined),78 to 82
4,COc1ccc2nccc(CCC[C@@H]3CCN(CCCc4cccs4)C[C@@H]3C(=O)O)c2c1,60
5,CC(C)CN1C(=O)C2CC(c3ccc(N)cc3)(C2)C1=O,158 to 160
6,N#Cc1c(Sc2ncc([N+](=O)[O-])s2)nsc1Sc1ncc([N+](=O)[O-])s1,197 to 200
7,O=C(C1=COc2cc(O)ccc2O1)N1CCN(C(c2ccc(F)cc2)c2ccc(F)cc2)CC1,163
8,CCOC(=O)C1C(=O)N(Cc2ccc(Br)cc2F)C(=O)c2cccn21 (centres undefined),114 to 115
9,O=C1c2ccccc2C(O)(c2ccc(Cl)cc2)N1CCc1ccc([N+](=O)[O-])cc1 (centres undefined),206 to 208
10,CC(C)(C)c1cc(C(CCc2ccccc2)NCP(=O)(O)O)cc(C(C)(C)C)c1O (centres undefined),162 to 169
11,CC(C)c1ccc(NC(=O)OC(C)(C)C)c(C(=O)O)c1,175
12,OCc1cc2ccnc(Cl)c2[nH]1,185 to 187
13,COc1cc2c(cc1OC)C(C(CO)CO)NCC2 (centres undefined),140
14,CCCCOc1c(CNC(=O)OC(C)(C)C)n(CC(C)C)c(=O)c2ccc(-c3nc(C(N)=O)cs3)cc12,195 to 196
15,CNC(=O)C(Cc1ccccc1)NC(=O)CNC(=O)OC(C)(C)C (stereo not drawn) (Boc-Gly-[ξF]-NHMe),158 to 160
16,CCOC(=O)c1cnc2n(c1=O)CCc1ccccc1-2,117 to 125
17,CC(C)(C)OC(=O)Nc1cccc(C(=O)OCOC(=O)C(C)(C)C)c1,88 to 89
18,CC(C)C(N=C(NN)NN)C(=O)O (centres undefined),112 to 116
19,CC1(C)CCC(=O)c2c1oc(-c1ccncc1)c2-c1ccccc1,156 to 157
20,CCCCCSc1ncccc1C(=O)NCCCCn1cnc2c(N)nc3ccccc3c21,158 to 161
21,C[C@@H](NC(=O)c1c[nH]c2ncc(-c3nn(C)c4cc(C(C)(C)C)ccc34)nc12)C(=O)N1CC(C#N)C1,180 to 195
22,N#Cc1c(N2CCc3ccccc3CC2)nc[nH]c1=O,139 to 140
23,COc1cccc2c1OC(COS(=O)(=O)c1ccc(C)cc1)C2 (centres undefined),98 to 103

# Source: a melting point compilation (Tetko et al.; mined from patent text by program, amines drawn as free bases though some values may be those of a salt)
